Source: US9150566B2, “2-(1,2,3-triazol-2-yl)benzamide and 3-(1,2,3-triazol-2-YL)picolinamide derivatives as orexin receptor antagonists” (ACTELION PHARMACEUTICALS LTD., priority 2011, dated 2015)
Where two headings read alike, the source gives them in different places.

Tests used:
human orexin-1 receptor = human orexin-1 receptor (Homo sapiens (Human), UniProt O43613); assay: In vitro intracellular calcium measurements (FLIPR), antagonistic activity on orexin-1 receptor; format: cell-based
Summary of the method: (§1)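 CHO cells expressing human orexin-1 or orexin-2 receptor were seeded overnight, preincubated with antagonist for 120 min, then stimulated with agonist in a FLIPR Tetra.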

human orexin-2 receptor = human orexin-2 receptor (Homo sapiens (Human), UniProt O43614); assay: In vitro intracellular calcium measurements (FLIPR), antagonistic activity on orexin-2 receptor; format: cell-based; conditions: read-out: IC50 OX2
Summary of the method: as §1

[1] = Measurement of brain and systemic concentration after oral administration; format: in vivo; conditions: rat, brain, male wistar rats, oral 100 mg/kg, read-out: brain concentration [B]; for concentration at 3 h: formulated in 100% PEG400, sampled at 3 h; for concentration at 1 h: formulated in 10% PEG400/90% MC0.5%, sampled at 1 h
Protocol: Measurement of Brain and Systemic Concentration after Oral Administration:
In order to assess brain penetration, the concentration of the compound is measured in plasma ([P]), and brain ([B]), sampled 1 h or 3 h (or at different time points) following oral administration (100 mg/kg) to male wistar rats (n=3). The compounds are formulated either in 100% PEG 400 or 10% PEG400/90% MC0.5%. Samples are collected in the same animal at the same time point (+/−5 min). Blood is sampled from the vena cava caudalis into containers with EDTA as anticoagulant and centrifuged to yield plasma. Brain is sampled after cardiac perfusion of 10 mL NaCl 0.9% and homogenized into one volume of cold phosphate buffer (pH 7.4). All samples are extracted with MeOH and analyzed by LC-MS/MS. Concentrations are determined with the help of calibration curves. Inter-individual variations between the three rats were limited. Particular compounds of the present invention tested as described above gave brain concentrations ([B]) as shown in Table 16 below; wherein the compounds of Examples 11-37 and 94 were formulated in 100% PEG400 and sampled at 3 h. All other examples below were formulated in 10% PEG400/90% MC0.5% and sampled at 1 h.

CYP3A4 = CYP3A4 (Homo sapiens (Human), UniProt P08684); assay: CYP3A4 inhibition assay (human liver microsomes, testosterone 6β-hydroxylation); conditions: read-out: CYP3A4 IC50, 40 μM testosterone
[2] = CHO cells expressing human orexin-1 receptor, FLIPR, 3 nM orexin-A agonist, 120 min antagonist incubation, geometric mean if determined several times, read-out: IC50 OX1
[3] = CHO cells expressing human orexin-2 receptor, FLIPR, 3 nM orexin-A agonist, 120 min antagonist incubation, geometric mean if determined several times

Chain of CYP3A4 (P08684 whole entry): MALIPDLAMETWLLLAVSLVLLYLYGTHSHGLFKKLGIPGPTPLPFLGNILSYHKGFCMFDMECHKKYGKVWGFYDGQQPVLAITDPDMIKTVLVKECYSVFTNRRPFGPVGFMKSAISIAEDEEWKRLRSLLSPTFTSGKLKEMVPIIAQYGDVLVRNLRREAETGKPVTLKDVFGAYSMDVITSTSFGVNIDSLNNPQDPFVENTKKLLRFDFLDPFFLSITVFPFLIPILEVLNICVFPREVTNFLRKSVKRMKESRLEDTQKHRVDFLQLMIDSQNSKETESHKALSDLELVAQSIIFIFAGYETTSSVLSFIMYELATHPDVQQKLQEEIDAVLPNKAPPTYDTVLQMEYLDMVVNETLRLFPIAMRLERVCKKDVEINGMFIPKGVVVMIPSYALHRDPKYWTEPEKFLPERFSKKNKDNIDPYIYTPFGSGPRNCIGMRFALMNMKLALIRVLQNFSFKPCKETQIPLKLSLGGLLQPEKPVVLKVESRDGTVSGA
Chain of human orexin-2 receptor (O43614 whole entry): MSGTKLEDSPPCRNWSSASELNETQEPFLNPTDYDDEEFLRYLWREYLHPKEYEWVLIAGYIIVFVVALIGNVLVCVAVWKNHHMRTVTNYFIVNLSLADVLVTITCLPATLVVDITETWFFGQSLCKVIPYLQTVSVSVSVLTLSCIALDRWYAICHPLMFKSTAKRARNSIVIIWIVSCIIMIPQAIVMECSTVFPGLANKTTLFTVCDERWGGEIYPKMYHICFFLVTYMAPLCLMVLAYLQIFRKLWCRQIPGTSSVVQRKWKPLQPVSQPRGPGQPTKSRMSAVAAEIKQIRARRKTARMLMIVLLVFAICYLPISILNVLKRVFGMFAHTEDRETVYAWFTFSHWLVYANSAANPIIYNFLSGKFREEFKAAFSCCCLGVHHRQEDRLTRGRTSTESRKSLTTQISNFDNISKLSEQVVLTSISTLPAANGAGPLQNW
Chain of human orexin-1 receptor (O43613 whole entry): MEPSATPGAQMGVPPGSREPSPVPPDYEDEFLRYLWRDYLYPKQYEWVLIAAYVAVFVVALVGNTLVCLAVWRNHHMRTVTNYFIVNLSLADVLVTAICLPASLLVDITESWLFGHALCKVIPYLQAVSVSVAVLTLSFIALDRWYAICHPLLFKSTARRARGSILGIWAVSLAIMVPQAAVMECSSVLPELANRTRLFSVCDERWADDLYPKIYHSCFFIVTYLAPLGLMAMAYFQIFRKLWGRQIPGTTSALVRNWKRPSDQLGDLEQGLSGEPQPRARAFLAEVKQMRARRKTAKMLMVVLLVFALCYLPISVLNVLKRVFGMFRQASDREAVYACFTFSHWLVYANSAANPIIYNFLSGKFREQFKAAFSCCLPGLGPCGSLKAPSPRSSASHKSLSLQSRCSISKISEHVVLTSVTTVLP

| concentration at 3 h [1] [ng/g] | IC50 (human orexin-1 receptor; [2]) [nM] | IC50 (human orexin-2 receptor; [3]) [nM] | IC50 (CYP3A4) [nM] | concentration at 1 h [1] [ng/g] | Compound | IC50 (human orexin-1 receptor; read-out: IC50 OX1) [nM] | IC50 (human orexin-2 receptor) [nM] | IC50 (human orexin-1 receptor) [nM] |
| --- | --- | --- | --- | --- | --- | --- | --- | --- |
| 11900 | 17 | 1240 | 30000 |  | O=C(c1ccccc1-n1nccn1)N1CCOC[C@H]1Cc1cccc(-n2nccn2)c1 [Example 12, [(R)-3-(3-[1,2,3]Triazol-2-yl-benzyl)-morpholin-4-yl]-(2-[1,2,3]triazol-2-yl-phenyl)-methanone] |  |  |  |
| 160 | 30 | 1820 | 43000 |  | O=C(c1ccccc1-n1nccn1)N1CCOC[C@H]1Cc1cccc(-n2cccn2)c1 [Example 16, [(R)-3-(3-Pyrazol-1-yl-benzyl)-morpholin-4-yl]-(2-[1,2,3]triazol-2-yl-phenyl)-methanone] |  |  |  |
| 36 | 2 | 1650 | 20000 |  | Cc1ccc(-n2nccn2)c(C(=O)N2CCOC[C@H]2Cc2cccc(-n3cccn3)c2)c1F [Example 21, (2-Fluoro-3-methyl-6-[1,2,3]triazol-2-yl-phenyl)-[(R)-3-(3-pyrazol-1-yl-benzyl)-morpholin-4-yl]-methanone] |  |  |  |
| 423 | 4 | 333 | 39000 |  | Cc1ccc(-n2nccn2)c(C(=O)N2CCOC[C@H]2Cc2cccc(-n3nccn3)c2)c1F [Example 29, (2-Fluoro-3-methyl-6-[1,2,3]triazol-2-yl-phenyl)-[(R)-3-(3-[1,2,3]triazol-2-yl-benzyl)-morpholin-4-yl]-methanone] |  |  |  |
| 1870 | 4 | 199 | 17000 |  | O=C(c1cc(Cl)ccc1-n1nccn1)N1CCOC[C@H]1Cc1cccc(-n2nccn2)c1 [Example 30, (5-Chloro-2-[1,2,3]triazol-2-yl-phenyl)-[(R)-3-(3-[1,2,3]triazol-2-yl-benzyl)-morpholin-4-yl]-methanone] |  |  |  |
| 59 | 1 | 25 | 20000 |  | Cc1cc(C(=O)N2CCOC[C@H]2Cc2cccc(-n3nccn3)c2)c(-n2nccn2)cc1C [Example 35, (4,5-Dimethyl-2-[1,2,3]triazol-2-yl-phenyl)-[(R)-3-(3-[1,2,3]triazol-2-yl-benzyl)-morpholin-4-yl]-methanone] |  |  |  |
| 881 | 4 | 209 | 17000 |  | COc1cc(C(=O)N2CCOC[C@H]2Cc2cccc(-n3nccn3)c2)c(-n2nccn2)cc1C [Example 37, (5-Methoxy-4-methyl-2-[1,2,3]triazol-2-yl-phenyl)-[(R)-3-(3-[1,2,3]triazol-2-yl-benzyl)-morpholin-4-yl]-methanone] |  |  |  |
|  |  | 404 | 29000 | 4420 | Cc1ccc(C(=O)N2CCOC[C@H]2Cc2cc(-n3nccn3)ccc2F)c(-n2nccn2)c1 [Example 62, [(R)-3-(2-Fluoro-5-[1,2,3]triazol-2-yl-benzyl)-morpholin-4-yl]-(4-methyl-2-[1,2,3]triazol-2-yl-phenyl)-methanone] |  |  |  |
|  | 2 | 133 | 7500 | 1380 | O=C(c1ccc(C(F)(F)F)cc1-n1nccn1)N1CCOC[C@H]1Cc1cccc(-n2nccn2)c1 [Example 76, [(R)-3-(3-[1,2,3]Triazol-2-yl-benzyl)-morpholin-4-yl]-(2-[1,2,3]triazol-2-yl-4-trifluoromethyl-phenyl)-methanone] |  |  |  |
|  |  | 227 | 15000 | 1880 | O=C(c1ccc(C(F)(F)F)cc1-n1nccn1)N1CCOC[C@H]1Cc1cccc(-c2ncon2)c1 [Example 87, [(R)-3-(3-[1,2,4]Oxadiazol-3-yl-benzyl)-morpholin-4-yl]-(2-[1,2,3]triazol-2-yl-4-trifluoromethyl-phenyl)-methanone] |  |  |  |
|  |  | 571 | > 50000 | 613 | Cc1ccc(C(=O)N2CCOC[C@H]2Cc2cc(-c3ncccn3)ccc2F)c(-n2nccn2)c1 [Example 156, [(R)-3-(2-Fluoro-5-pyrimidin-2-yl-benzyl)-morpholin-4-yl]-(4-methyl-2-[1,2,3]triazol-2-yl-phenyl)-methanone] |  |  |  |
|  | 11 | 181 | 19000 |  | C[C@@H]1CN(C(=O)c2cc(Cl)ccc2-n2nccn2)[C@H](Cc2cc(-n3nccn3)ccc2F)CO1 [Example 186, (5-Chloro-2-[1,2,3]triazol-2-yl-phenyl)-[(2R,5R)-5-(2-fluoro-5-[1,2,3]triazol-2-yl-benzyl)-2-methyl-morpholin-4-yl]-methanone] |  |  |  |
|  | 6 | 58 | 14000 |  | C[C@@H]1CN(C(=O)c2ccc(Cl)cc2-n2nccn2)[C@H](Cc2cc(-n3nccn3)ccc2F)CO1 [Example 187, (4-Chloro-2-[1,2,3]triazol-2-yl-phenyl)-[(2R,5R)-5-(2-fluoro-5-[1,2,3]triazol-2-yl-benzyl)-2-methyl-morpholin-4-yl]-methanone] |  |  |  |
|  | 21 | 2130 | 14000 |  | Cc1ccc(-n2nccn2)c(C(=O)N2CCOC[C@H]2Cc2cc(-n3cccn3)ccc2C)c1 [Example 188, [(R)-3-(2-Methyl-5-pyrazol-1-yl-benzyl)-morpholin-4-yl]-(5-methyl-2-[1,2,3]triazol-2-yl-phenyl)-methanone] |  |  |  |
|  | 12 | 1090 | 17000 |  | Cc1ccc(C(=O)N2CCOC[C@H]2Cc2cc(-n3cccn3)ccc2C)c(-n2nccn2)c1 [Example 189, [(R)-3-(2-Methyl-5-pyrazol-1-yl-benzyl)-morpholin-4-yl]-(4-methyl-2-[1,2,3]triazol-2-yl-phenyl)-methanone] |  |  |  |
|  | 25 | 3770 | 26000 |  | Cc1ccc(-n2cccn2)cc1C[C@@H]1COCCN1C(=O)c1cccc(C)c1-n1nccn1 [Example 190, [(R)-3-(2-Methyl-5-pyrazol-1-yl-benzyl)-morpholin-4-yl]-(3-methyl-2-[1,2,3]triazol-2-yl-phenyl)-methanone] |  |  |  |
|  | 12 | 1040 | 14000 |  | Cc1ccc(-n2nccn2)cc1C[C@@H]1COCCN1C(=O)c1ccc(Cl)cc1-n1nccn1 [Example 191, (4-Chloro-2-[1,2,3]triazol-2-yl-phenyl)-[(R)-3-(2-methyl-5-[1,2,3]triazol-2-yl-benzyl)-morpholin-4-yl]-methanone] |  |  |  |
|  | 16 | 2610 | > 50000 |  | Cc1ccc(C[C@@H]2COCCN2C(=O)c2ccccc2-n2nccn2)cc1-c1ncccn1 [Example 192, [(R)-3-(4-Methyl-3-pyrimidin-2-yl-benzyl)-morpholin-4-yl]-(2-[1,2,3]triazol-2-yl-phenyl)-methanone] |  |  |  |
|  | 1 | 238 | 600 |  | Cc1ccc(C[C@@H]2COCCN2C(=O)c2ccccc2-n2nccn2)cc1-c1nccs1 [Example 193, [(R)-3-(4-Methyl-3-thiazol-2-yl-benzyl)-morpholin-4-yl]-(2-[1,2,3]triazol-2-yl-phenyl)-methanone] |  |  |  |

| Compound | concentration at 3 h [1] [ng/g] | IC50 (human orexin-1 receptor; [2]) [nM] | IC50 (human orexin-2 receptor; [3]) [nM] | IC50 (CYP3A4) [nM] | concentration at 1 h [1] [ng/g] | IC50 (human orexin-1 receptor; read-out: IC50 OX1) [nM] | IC50 (human orexin-2 receptor) [nM] | IC50 (human orexin-1 receptor) [nM] |
| --- | --- | --- | --- | --- | --- | --- | --- | --- |
| Cc1ccc(-n2nccn2)c(C(=O)N2CCOC[C@H]2Cc2cccc(-n3nccn3)c2)c1 [Example 11, (5-Methyl-2-[1,2,3]triazol-2-yl-phenyl)-[(R)-3-(3-[1,2,3]triazol-2-yl-benzyl)-morpholin-4-yl]-methanone] | 46 |  |  |  |  | 2 | 196 |  |
| Cc1ccc(C(=O)N2CCOC[C@H]2Cc2cccc(-n3nccn3)c2)c(-n2nccn2)c1 [Example 27, (4-Methyl-2-[1,2,3]triazol-2-yl-phenyl)-[(R)-3-(3-[1,2,3]triazol-2-yl-benzyl)-morpholin-4-yl]-methanone] | 5500 |  |  | 31000 |  | 2 | 274 |  |
| Cc1cccc(C(=O)N2CCOC[C@H]2Cc2cccc(-n3nccn3)c2)c1-n1nccn1 [Example 64, (3-Methyl-2-[1,2,3]triazol-2-yl-phenyl)-[(R)-3-(3-[1,2,3]triazol-2-yl-benzyl)-morpholin-4-yl]-methanone] |  |  | 784 | 33000 | 2370 |  |  | 6 |
| Cc1ccc(-n2nccn2)c(C(=O)N2CCC[C@H]2Cc2cccc(-n3nccn3)c2)c1 [Ref. 2] |  | 0.5 | 8 | 3300 |  |  |  |  |
| O=C(c1ccccc1-n1nccn1)N1CCCC[C@H]1Cc1cccc(-n2nccn2)c1 [Ref. 3] |  | 1 | 12 | 6100 |  |  |  |  |
| Cc1ccc(-n2nccn2)c(C(=O)N2CCCC[C@H]2Cc2cccc(-n3nccn3)c2)c1 [Ref. 4] |  | 0.3 | 2 | 7700 |  |  |  |  |
